“And” between values parts separate entries of the source, which are not always exact repeats. Equal entries are not always repeated.
Legend:
male Wistar rats [1] = test: Depressor effect of 20-HETE analog DSR given IV, with or without antagonists; assay type: in vivo, rat
male Wistar rats [2] = test: Plasma CGRP and substance P after i.v. DSR (radioimmunoassay); assay type: in vivo, rat; conditions: after DSR 1 mg/kg iv
[3] = system: Wistar rats fed a NS or HS diet for 3 weeks; test: Plasma CGRP levels after MethA injection (radioimmunoassay); assay type: in vivo, rat; conditions: MethA 5 mg/kg
From the text: Fifteen minutes after injection, when the prolonged depressor phase approached to the lowest point, the rats were decapitated for collection of blood for plasma CGRP assay.
(§1) This antibody has 100% cross-reactivity with rat α-CGRP and 79% with rat β-CGRP. There is no cross-reactivity with rat amylin, calcitonin, somatostatin, or substance P.

mesenteric arteries [4] = test: MethA-induced CGRP release from isolated mesenteric arteries (radioimmunoassay); parameters: species or system rat; conditions: arteries of NS-treated rats
Description: The arteries were dissected free of fat and connective tissues.
The preparations were incubated in a Krebs' solution of the following compositions (in mM): NaCl 119, NaHCO3 25, KH2PO4 1.2, MgSO4 1.5, CaCl2 2.5, KCl 4.7, and D-glucose 11. The Krebs' solution was maintained at 37 °C and gassed with 95% O2 and 5% CO2. After 1 h stabilization period, the arteries were transferred to another chamber containing 1 ml of Krebs' solution with the addition of 0.05% BSA and drugs. […] The tissues were removed after 20 min incubation, and the solutions were collected. At the end of the experiment, the tissues were blotted and weighted.
as §1

mesenteric arteries [5] = test: NADA-induced CGRP release from isolated mesenteric arteries (radioimmunoassay); parameters: species or system rat
Description: After an 1 h stabilization period, the arteries were transferred to another chamber containing 1 ml of Krebs's solution with the addition of 0.05% BSA and drugs including NADA (1 or 10 μM) or CAPZ (10 μM). The tissues were removed after 20 min incubation, and the solutions were collected and evaporated. […] At the end of the experiment, the tissues were blotted and weighted. […] The results are expressed as pg of milligram of tissues.
(§2) This antibody has 100% cross-reactivity with rat a-CGRP and 79% with β-CGRP. There is no cross-reactivity with rat amylin, calcitonin, somatostatin, or substance P. The assay was performed following the manufacturer's protocol.

[6] = system: Wistar rats fed a normal-salt (NS) or high-salt (HS) diet for 10 days; test: MAP and HR responses to i.v. bolus NADA with or without antagonists in conscious rats; assay type: in vivo, rat; conditions: for decrease in mean arterial pressure (depressor effect): NADA iv (1, 4, 10 mg/kg; dose of this value not stated); for prolonged depressor effect of NADA (decrease in MAP) after antagonist: NADA 4 mg/kg after CAPZ 3 mg/kg, CGRP8-37 infusion or SR141716A 3 mg/kg
From the text: In brief: Wistar rats were fed a normal (NS, 0.4%) or high (HS, 4%) sodium diet for 10 days, then artery and vein were cannulated for measurement of mean arterial pressure (MAP) or for injection of drugs and collection of plasma.
Animal Preparation: Male Wistar rats (7 weeks old, Charles River Laboratory, Wilmington, Mass.) were housed in the animal facility for 1 week before the experiment. Rats were grouped randomly and pair-fed a NS (0.4% of Na^+ by weight) or HS (4% of Na^+ by weight) diet for 10 days. The rat chow was purchased from Harlan Teklad Diets (Madison, Wis.). Drinking water was available ad libitum throughout the experiment. All protocols were in accordance with the National Institutes of Health Guidelines for the Care and Use of Laboratory Animals.
Surgical Preparation Rats were anesthetized with ketamine and xylazine (80 and 4 mg/kg intraperitoneally, respectively) for cannulation or with urethane (1.5 g/kg intraperitoneally) for capsaicin administration. The left jugular vein, carotid and femoral artery were cannulated under anesthesia for injection of drugs or monitoring of mean arterial pressure (MAP) and heart rate (HR).
Three hours after surgery, baseline MAP and its response to the above-mentioned drugs were obtained with the rats fully awake and unrestrained [Wang et al., Am J Physiol 2004; 287:H1868-H[874]. NADA was injected in increasing doses (1, 4, and 10 mg/kg intravenous bolus) in 3 subgroups of rats (each group for each dose). To determine the role of TRPV1 and CB 1 receptor in NADA-induced hypotension, NADA (4 mg/kg) was injected 10 minutes or 20 minutes after intravenous injection of CAPZ (3 mg/kg) or SR141716A (3 mg/kg), respectively.
To examine the effect of CGRP8-37 on NADA-induced hypotension, CGRP8-37 was intravenously administered at the rate of 1 mg/kg/min for 2 minutes followed by injection at the rate of 0.5 mg/kg/min for 15 minutes. NADA (4 mg/kg) was injected 1 minute after CGRPs-37 administration. The effectiveness of the dose and time frame for CGRP8-37 injection was verified by blockade of the hypotensive response to capsaicin (30 μg/kg) (n=5).

[7] = system: Wistar rats fed a NS or HS diet for 10 days; test: Plasma CGRP levels after NADA injection (radioimmunoassay); assay type: in vivo, rat; conditions: NADA 4 mg/kg
Description: Eight minutes after injection, when the depressor phase approached to the lowest point, the rats were sacrificed for collection of blood for plasma CGRP assay.
as §2

Wistar rats fed HS diet = test: Blood pressure after i.v. SR141716A or CAPZ in conscious rats fed HS diet (Example I); assay type: in vivo, rat; conditions: 3 mg/kg iv
Description: Experiments were approved by the Institutional Animals Care and Use Committee. Experiments were performed using male Wistar rats (Charles River Laboratory, Wilmington, Mass.). Rats (6 weeks old) were housed in the animal facility for 1 week before the experiments. Rats were then randomly assigned to a normal-sodium (NS) diet (0.4% of Na+ by weight, Harlan Teklad) or HS (4% of Na+ by weight; Harlan Teklad) for 3 weeks. Rats drank water ad libitum throughout the experiment.
Surgical Preparation and MAP measurements: The rats were anesthetized with ketamine and xylazine (80 and 4 mg/kg intraperitoneally, respectively) for implantation of vascular catheters or with urethane ([…] intraperitoneally) throughout protocol 2. […]
Protocol 1: Rats fed a NS or HS diet were randomly assigned to 5 groups for intravenous injection of vehicle or MethA alone or in combination with SR141716A (a CB1 receptor antagonist), CAPZ (a VR1 receptor antagonist), or the combination of the 2 (n=5 to 8). Baseline MAP and its response to the aforementioned drugs were determined 3 hours after surgery when animals were fully awake and unrestrained as described previously. […]

## O=C(O)CCC/C=C\CCCCCCC/C=C\CCCCO [DSR]
Male Wistar rats [1]; DSR 1 mg/kg IV alone
  decrease in mean arterial pressure: 22.1±2.3 mmHg
Male Wistar rats [1]; rat, in vivo
  depressor effect among the analogs tested in vivo: most potent
Male Wistar rats [2]
  plasma CGRP levels: 273.4 ± 23.6 pg/mL
  plasma SP levels: 14.5 ± 1.6 pg/mL

## CCCCC/C=C\C/C=C\C/C=C\C/C=C\CCCC(=O)N[C@H](C)CO [MethA, methanandamide]
[3]; HS
  plasma CGRP levels: 78.1 ± 8.5 pg/mL
[3]; NS
  plasma CGRP levels: 50.4 ± 5.9 pg/mL
Mesenteric arteries [4]; MethA 0.1 μM
  CGRP release: 4.81±0.75 pg/mg tissue
Mesenteric arteries [4]; MethA 10 μM
  CGRP release: 14.89±2.36 pg/mg tissue

## CCCCC/C=C\C/C=C\C/C=C\C/C=C\CCCC(=O)NCCc1ccc(O)c(O)c1 [NADA, N-arachidonoyl dopamine]
Mesenteric arteries [5]; NADA 1 μM, arteries of HS-treated rats
  CGRP release: 9.16±0.68 pg/mg tissue
Mesenteric arteries [5]; NADA 1 μM, arteries of NS-treated rats
  CGRP release: 6.43±0.58 pg/mg tissue
Mesenteric arteries [5]; NADA 10 μM, arteries of HS-treated rats
  CGRP release: 19.00±1.56 pg/mg tissue
Mesenteric arteries [5]; NADA 10 μM, arteries of NS-treated rats
  CGRP release: 13.07±0.91 pg/mg tissue
[6]; NADA 1 mg/kg iv, HS diet
  peak decrease in MAP: 6±2 mmHg
[6]; NADA 1 mg/kg iv, NS diet
  peak decrease in MAP: 7±3 mmHg
[6]; NADA 4 mg/kg iv, HS diet
  peak decrease in MAP: 22±3 mmHg
[6]; NADA 4 mg/kg iv, NS diet
  peak decrease in MAP: 14±2 mmHg
[6]; NADA 10 mg/kg iv, HS diet
  peak decrease in MAP: 33±5 mmHg
[6]; NADA 10 mg/kg iv, NS diet
  peak decrease in MAP: 24±4 mmHg
[6]; HS diet
  decrease in mean arterial pressure (depressor effect): 16±3 mmHg
[6]; NS diet
  decrease in mean arterial pressure (depressor effect): 8±2 mmHg
[6]; after NADA iv
  HR during depressor effect: pronounced increase
  duration of prolonged depressor activity: approximately 20 minutes
  time of peak of prolonged depressor activity after administration: 7 to 9 min
[7]; HS
  plasma CGRP levels: 84.2 ± 7.2 pg/mL and 87.7 ± 5.6 pg/mL
[7]; NS
  plasma CGRP levels: 55.3 ± 4.6 pg/mL and 60.6 ± 5.1 pg/mL

## Cc1c(C(=O)NN2CCCCC2)nn(-c2ccc(Cl)cc2Cl)c1-c1ccc(Cl)cc1 [SR141716A]
[6]; HS diet
  prolonged depressor effect of NADA (decrease in MAP) after antagonist: 19±4 mmHg
[6]; NS diet
  prolonged depressor effect of NADA (decrease in MAP) after antagonist: 12±3 mmHg
[6]; NADA 4 mg/kg, NS and HS
  effect on initial transient hypotensive and brief pressor phases of NADA: did not affect
Wistar rats fed HS diet
  duration of transient elevation in blood pressure after injection: no more than 15 minutes

Source: US20080051454A1, “Compositions and methods for transient receptor potential vanilloid (TRPV) channel mediated treatments” (The Board of Trustees Operating Michigan State University, priority 2006, published 2008)
